This is an account of results in ChEMBL document CHEMBL1201862, “PubChem BioAssay data set” (2004).

Assay in all cases: NCI anticancer screen, dose series, 48 h
For assay [1], the system named is OVCAR-3.
In assay [2] the test system is OVCAR-8.
Assay [3] deals with NCI-H23.
Assay [4] deals with RPMI-8226.
Assay [5] deals with SF-268.
Assay [6] deals with SW-620.
For assay [7], the system named is SF-295.
Assay [8] has as its system HCT-116.
Assay [9] deals with HCT-15.
The test system of assay [10] is UACC-257.
Assay [11] deals with NCI-H460.
Assay [12] concerns HT-29.
Assay [13] relates to UO-31.
Assay [14] has as its system U-251.
Assay [15] has as its system TK-10.
For assay [16], the system named is SK-MEL-28.
The subject of assay [17] is Malme-3M.
The subject of assay [18] is M14.
Assay [19] has as its system BT-549.
The test system of assay [20] is HOP-92.

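Test compounds were applied to cells in 96-well plates for 48 hours at 5 doses. GI50: concentration for 50% inhibition of growth.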 Active and inactive are the calls of the source. Cut-off read from the data, not from the text of the source: active = GI50 up to about 1.1 µM and inactive = higher.

On to `O=C1OC2C=CCC1C2` (centres undefined), for which the GI50 in assay [1], in [2], in assay [3], in assay [4], in assay [5] and in assay [6] was > 100 µM (inactive) each time. Moreover, the GI50 in assay [7] is > 100 µM (inactive); in assay [8], > 100 µM (inactive); in [9], greater than 100 µM; in [10], > 100 µM (inactive); in [11], > 100 µM (inactive); in assay [12], > 100 µM (inactive). In addition, the GI50 in assay [13], in assay [14], in assay [15], in [16], in assay [17] and in assay [18] was > 100 µM (inactive) in each case. In addition, in assay [19], the GI50 was > 100 µM (inactive).
For `c1ccc2c(c1)-c1nc3ccccc3cc1C2N1CCOCC1` (centres undefined), the GI50 in assay [1] is > 100 µM (inactive); in assay [2], 93.5 µM (inactive); in assay [3], > 100 µM (inactive); in assay [4] it was 72.1 µM (inactive); in assay [5] it was 61.2 µM (inactive); in [6], > 100 µM (inactive). The GI50 was > 100 µM (inactive) in assay [7]; > 100 µM (inactive) in assay [8]; greater than 100 µM in assay [9]; > 100 µM (inactive) in assay [10]; 92.5 µM (inactive) in assay [12]; 1.37 µM (inactive) in [13]. The GI50 in [14], in [15], in [16], in assay [17], in [18] and in [19] was > 100 µM (inactive) in each case.
Consider `O=P(c1ccccc1)(c1ccccc1)c1ccc2c(c1)OCCOCCOCCOCCO2`, for which the GI50 in [2], in [3], in assay [4], in assay [5], in assay [6] and in assay [7] was > 100 µM (inactive) each time. In addition, the GI50 in [8] was > 100 µM (inactive); in [9], greater than 100 µM; in [11], > 100 µM (inactive); in [13], > 100 µM (inactive); in [15], > 100 µM (inactive); in [16], > 100 µM (inactive). For the same molecule, the GI50 in assay [17], in assay [18] and in [19] was > 100 µM (inactive) in each case.
`COC(=O)OC[C@H]1O[C@@H](n2cc(C)c(=O)[nH]c2=O)CC1OC(=O)OC` (some centres undefined): the GI50 in assay [1], in assay [2], in assay [3], in [4], in assay [5] and in [6] was > 100 µM (inactive) in each case. In addition, the GI50 in assay [7] is > 100 µM (inactive); in [9], greater than 100 µM; in assay [11] it was > 100 µM (inactive); in [12] it was > 100 µM (inactive); in assay [13], > 100 µM (inactive); in [14], > 100 µM (inactive). For the same molecule, the GI50 in assay [15], in assay [16], in assay [17], in assay [18] and in assay [19] was > 100 µM (inactive) throughout.
Take `COc1ccc(NS(=O)(=O)c2ccc(/N=C3\C=C(Nc4ccc(S(=O)(=O)Nc5ccc(OC)nn5)cc4)C(=O)c4ccccc43)cc2)nn1`: the GI50 in assay [1] was 21 µM (inactive); in assay [2], 17.2 µM (inactive); in assay [3] it was 16.2 µM (inactive); in assay [4], 53.7 µM (inactive); in assay [20], 31 µM (inactive); in assay [5], 21.4 µM (inactive). Besides, the GI50 in assay [6] was 18.9 µM (inactive); in assay [7] it was 17.1 µM (inactive); in [8] it was 17.5 µM (inactive); in assay [9] it was 17 µM; in [10] it was 16.9 µM (inactive); in assay [11], 17.7 µM (inactive). The GI50 is 20.5 µM (inactive) in assay [12]; 19.7 µM (inactive) in assay [13]; 18 µM (inactive) in assay [14]; 21.9 µM (inactive) in assay [15]; 17.5 µM (inactive) in [16]; 19 µM (inactive) in assay [17]. Also, the GI50 in assay [18] is 17.5 µM (inactive).
Consider `O=C(/C=C1\Nc2ccccc2N\C1=C\C(=O)c1ccc(Cl)cc1)c1ccccc1`, for which the GI50 is 23.9 µM (inactive) in [2]; 75 µM (inactive) in assay [3]; 39.4 µM (inactive) in [4]; > 100 µM (inactive) in assay [5]; > 100 µM (inactive) in assay [6]; 40.3 µM (inactive) in assay [7]. In addition, the GI50 in assay [8] is 38.3 µM (inactive); in assay [9] it was 52.7 µM; in assay [10] it was 53.8 µM (inactive); in assay [11] it was 19.7 µM (inactive); in assay [13], 21.4 µM (inactive); in [14] it was 23.4 µM (inactive). For the same molecule, the GI50 in [15] is > 100 µM (inactive); in assay [16], 42.4 µM (inactive); in assay [17], > 100 µM (inactive); in [18], 18.3 µM (inactive); in assay [19] it was 34.5 µM (inactive).
For the molecule `COC(=O)C1Cc2ccc3c(c2C1=O)CCCC3` (centres undefined), the GI50 was 80.7 µM (inactive) in [1]; 92.3 µM (inactive) in assay [2]; 74.5 µM (inactive) in assay [3]; 24.7 µM (inactive) in [4]; > 100 µM (inactive) in assay [5]; 86.5 µM (inactive) in assay [6]. The GI50 in [7] is 71.4 µM (inactive); in assay [8], 39.7 µM (inactive); in assay [9], 69.5 µM; in assay [10], > 100 µM (inactive); in assay [11], > 100 µM (inactive); in assay [12], > 100 µM (inactive). In addition, the GI50 in [13] is 61.4 µM (inactive); in assay [14], 61.9 µM (inactive); in [15], > 100 µM (inactive); in [16], > 100 µM (inactive); in assay [17] it was > 100 µM (inactive); in assay [18], > 100 µM (inactive). Moreover, the GI50 in assay [19] was > 100 µM (inactive).
As for `CSC(SC)=C(C#N)C(=O)Nc1ccc(Cl)cc1`, the GI50 in assay [1] was > 100 µM (inactive); in assay [2], 52.8 µM (inactive); in assay [3], 30.2 µM (inactive); in [4] it was 26.4 µM (inactive); in assay [5] it was 61.7 µM (inactive); in assay [6], 44.1 µM (inactive). The GI50 is 29.1 µM (inactive) in [8]; 33.2 µM in [9]; > 100 µM (inactive) in assay [10]; > 100 µM (inactive) in [11]; 35.6 µM (inactive) in [12]; 22 µM (inactive) in assay [13]. Also, the GI50 was 91 µM (inactive) in assay [14]; 23.8 µM (inactive) in assay [15]; > 100 µM (inactive) in assay [16]; 27.1 µM (inactive) in [17]; 48.4 µM (inactive) in assay [18]; 46.7 µM (inactive) in assay [19].
For the molecule `COC(=O)c1c(O)ccc2c1c1c(n2Cc2ccccc2OC)C(=O)c2ccccc2C1`, the GI50 was 88.7 µM (inactive) in [1]; 91.2 µM (inactive) in assay [2]; 74.8 µM (inactive) in assay [3]; 22.4 µM (inactive) in assay [4]; 40.5 µM (inactive) in assay [5]; 81.1 µM (inactive) in assay [6]. Also, the GI50 in [8] was 27.8 µM (inactive); in assay [9], 63.4 µM; in [10] it was 34.7 µM (inactive); in assay [11], 29 µM (inactive); in assay [12], 36.5 µM (inactive); in assay [13] it was 44.5 µM (inactive). For the same molecule, the GI50 in assay [14] is 63.4 µM (inactive); in assay [15] it was > 100 µM (inactive); in assay [16], > 100 µM (inactive); in [17], > 100 µM (inactive); in assay [18], 46.2 µM (inactive); in assay [19] it was > 100 µM (inactive).
With `NC(=O)C(=CNC(N)=S)C(N)=O`, the GI50 in assay [1], in [2], in assay [3], in [4], in assay [5] and in assay [6] was > 100 µM (inactive) throughout. Besides, the GI50 is > 100 µM (inactive) in assay [7]; > 100 µM (inactive) in [8]; greater than 100 µM in [9]; > 100 µM (inactive) in assay [10]; > 100 µM (inactive) in assay [11]; > 100 µM (inactive) in assay [12]. Further, the GI50 in assay [13] is 60 µM (inactive); in [14], > 100 µM (inactive); in [16], > 100 µM (inactive); in assay [17] it was > 100 µM (inactive); in assay [18], > 100 µM (inactive); in assay [19] it was > 100 µM (inactive).
Turning to `Fc1ccc(Oc2nc3ccc(C(F)(F)F)cc3nc2-c2ccccc2)cc1`, the GI50 is > 100 µM (inactive) in assay [1]; > 100 µM (inactive) in assay [2]; 77.3 µM (inactive) in assay [3]; > 100 µM (inactive) in [5]; > 10 µM (inactive) in assay [6]; 37.7 µM (inactive) in [7]. For the same molecule, the GI50 was 85.1 µM (inactive) in [8]; greater than 100 µM in [9]; 47.2 µM (inactive) in assay [10]; 66.2 µM (inactive) in assay [11]; 32.1 µM (inactive) in assay [12]; 44.3 µM (inactive) in assay [13]. Besides, the GI50 in [15] is 51.2 µM (inactive); in [17], 38 µM (inactive); in assay [18], 50.4 µM (inactive); in assay [19], > 100 µM (inactive).
